Values of other authors, collected in patent publication US20210220376A1, “ADDICTION TREATMENT OF AN ALCOHOL-CONSUMING PATIENT POPULATION” (Amygdala Neurosciences, Inc., priority 2018, published 2021).
pIC50: −log10 of the molar value.

What was measured:
[1] = target: T1, hMAO-A (Homo sapiens, UniProt P21397); details: read-out: IC50 hMAO-A; cited from earlier work
T1 sequence (P21397 1-527): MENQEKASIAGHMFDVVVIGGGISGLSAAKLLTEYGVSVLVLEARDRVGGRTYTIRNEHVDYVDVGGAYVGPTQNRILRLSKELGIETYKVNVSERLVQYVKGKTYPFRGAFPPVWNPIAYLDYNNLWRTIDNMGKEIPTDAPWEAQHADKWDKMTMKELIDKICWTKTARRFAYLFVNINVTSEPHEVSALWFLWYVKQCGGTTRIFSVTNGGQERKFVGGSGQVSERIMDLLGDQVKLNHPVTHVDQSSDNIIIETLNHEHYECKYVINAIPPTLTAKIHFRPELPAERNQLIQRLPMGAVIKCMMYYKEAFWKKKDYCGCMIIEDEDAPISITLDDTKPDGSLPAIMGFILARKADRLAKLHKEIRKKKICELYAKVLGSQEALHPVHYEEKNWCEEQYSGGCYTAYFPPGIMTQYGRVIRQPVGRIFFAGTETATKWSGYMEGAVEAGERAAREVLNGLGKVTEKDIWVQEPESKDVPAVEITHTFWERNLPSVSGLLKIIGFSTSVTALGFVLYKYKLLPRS

[2] = target: T2, hMAO-B (Homo sapiens, UniProt P27338); details: read-out: IC50 hMAO-B; cited from earlier work
T2 sequence (P27338 1-520): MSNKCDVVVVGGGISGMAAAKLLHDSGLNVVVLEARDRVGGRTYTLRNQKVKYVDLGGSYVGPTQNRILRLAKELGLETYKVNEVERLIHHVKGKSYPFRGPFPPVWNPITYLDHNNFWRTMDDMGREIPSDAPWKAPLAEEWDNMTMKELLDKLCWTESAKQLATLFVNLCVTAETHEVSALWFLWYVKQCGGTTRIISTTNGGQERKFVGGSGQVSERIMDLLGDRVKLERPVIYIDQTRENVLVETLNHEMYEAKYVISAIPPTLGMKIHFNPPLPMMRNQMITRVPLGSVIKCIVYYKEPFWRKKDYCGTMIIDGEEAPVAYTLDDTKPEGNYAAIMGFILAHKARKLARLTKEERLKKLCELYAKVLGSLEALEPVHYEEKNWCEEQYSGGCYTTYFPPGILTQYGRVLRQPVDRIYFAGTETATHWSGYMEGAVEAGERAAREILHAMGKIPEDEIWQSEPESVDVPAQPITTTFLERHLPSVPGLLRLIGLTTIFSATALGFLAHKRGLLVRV

[3] = target: T3, human ALDH-2 enzyme (Homo sapiens, UniProt P05091); details: read-out: IC50 ALDH-2; cited from earlier work
T3 sequence (P05091 18-517): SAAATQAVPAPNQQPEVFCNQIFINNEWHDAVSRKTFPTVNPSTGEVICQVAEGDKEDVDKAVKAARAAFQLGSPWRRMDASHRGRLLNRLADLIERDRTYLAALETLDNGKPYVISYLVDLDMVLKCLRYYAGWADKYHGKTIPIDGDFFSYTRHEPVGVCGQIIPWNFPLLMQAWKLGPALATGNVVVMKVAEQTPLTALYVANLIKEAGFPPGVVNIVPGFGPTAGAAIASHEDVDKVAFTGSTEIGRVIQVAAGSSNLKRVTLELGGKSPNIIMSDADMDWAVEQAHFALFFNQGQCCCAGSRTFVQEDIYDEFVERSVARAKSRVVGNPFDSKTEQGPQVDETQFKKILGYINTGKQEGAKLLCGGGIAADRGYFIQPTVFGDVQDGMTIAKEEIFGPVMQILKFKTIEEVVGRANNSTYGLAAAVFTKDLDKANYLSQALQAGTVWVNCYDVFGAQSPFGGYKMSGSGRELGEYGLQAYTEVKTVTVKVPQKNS

Compound: O=C(NCc1ccc(-c2ccn(COP(=O)(O)O)c(=O)c2)cc1)c1c(Cl)cccc1Cl [Compound (2), phosphoric acid mono-(4-{4-[(2,6-dichloro-benzoylamino)-methyl]-phenyl}-2-oxo-2H-pyridin-1-ylmethyl) ester]
- pIC50 [1]: < 3.89
- pIC50 [2]: < 3.89
- pIC50 [3]: < 5.00
